Data from patent US20210317099A1, “SAFER, POTENT, AND FAST ACTING ANTIMICROBIAL AGENTS” (Purdue Research Foundation, priority 2020, published 2021).
Values after ≈ are worked out from the molar mass of the structure shown. Read-outs that look alike come from different tables or passages of the source.

Tests used:
[1] = tested on: human keratinocytes cell line (HaCaT cells); experiment: In vitro cytotoxicity, MTS assay; format: cell-based; details: 2 h
Experimental: Compounds 144, 148, 149, 151, 155, and 158 were assayed (at concentrations of 16, 32, and 64 μg/mL) against a human keratinocytes cell line (HaCaT cells) to determine their in vitro potential toxic effect. Briefly, cells were cultured in Dulbecco's Modified Eagle Medium (DMEM) supplemented with 10% fetal bovine serum (FBS) and penicillin-streptomycin at 37° C. in presence of 5% CO2. Compounds were added in the first row of the 96-well plate. Control cells received DMSO alone at a concentration equivalent to that in drug-treated wells. The cells were incubated with the compounds (in triplicate) in a 96-well plate at 37° C. in presence of 5% CO2 for two hours. The assay reagent MTS 3-(4,5-dimethylthiazol-2-yl)-5-(3-carboxymethoxyphenyl)-2-(4-sulfophenyl)-2H-tetrazolium) (Promega, Madison, Wis., USA) was subsequently added and the plate was incubated for three to four hours. Absorbance readings (at OD490) were recorded using a kinetic microplate reader (Molecular Devices, Sunnyvale, Calif., USA). The quantity of viable cells after treatment with each compound was expressed as a percentage of the viability to DMSO-treated control cells (average of triplicate wells±standard deviation).
FIG. 2. Analyzing the toxicity of compounds 144, 148, 149, 151, 155 and 158 (tested in triplicates at 16, 32 and 64 μg/mL) against human keratinocytes cells (HaCaT) using the MTS 3-(4,5-dimethylthiazol-2-yl)-5-(3-carboxymethoxyphenyl)-2-(4-sulfophenyl)-2H-tetrazolium) assay. Results are presented as percent viable cells relative to DMSO (negative control to determine a baseline measurement for the cytotoxic impact of each compound). The absorbance values represent an average of three samples analyzed for each compound. Error bars represent standard deviation values. The data were analyzed via a two-way ANOVA with post-hoc Dunnett's test for multiple comparisons. An asterisk (*) denotes statistical significance (P<0.05) between results for compounds and DMSO.

[2] = tested on: Enterococcus faecium ATCC 700221 (VRE); experiment: MIC, Gram-positive panel; format: cell-based
Experimental: (§1) Next, the spectrum of antibacterial activity of compounds 144, 148, 149, 151, 155, 158, and 187 was examined against a panel of clinically relevant Gram-positive bacterial pathogens including methicillin-resistant Staphylococcus aureus (MRSA), vancomycin-resistant Staphylococcus aureus (VRSA), vancomycin-resistant Enterococcus faecalis and Enterococcus faecium (VRE), and Streptococcus pneumoniae. Bacterial strains were grown aerobically overnight on tryptone soya agar plates at 37° C. Afterwards, a bacterial solution equivalent to 0.5 McFarland standard was prepared and diluted in cation-adjusted Mueller-Hinton broth (CAMHB) (for staphylococci). Enterococci and Streptococci were diluted in tryptone soya broth (TSB) to achieve a bacterial concentration of about 5×10^5 CFU/mL and seeded in 96-well plates. Compounds and control drugs were added in the first row of 96-well plates and serially diluted with media containing bacteria. Plates were then, incubated aerobically at 37° C. for 18-20 hours (except for S. pneumoniae, which was incubated at 37° C. in presence of 5% CO2 for 18-20 hours).

[3] = tested on: VRSA 12; experiment: MIC, Gram-positive panel; format: cell-based; details: Staphylococcus aureus
Experimental: as §1

[4] = tested on: MRSA NRS 123; experiment: MIC, Gram-positive panel; format: cell-based; details: Staphylococcus aureus
Experimental: as §1

[5] = tested on: Enterococcus faecalis ATCC 51299 (VRE); experiment: MIC, Gram-positive panel; format: cell-based
Experimental: as §1

[6] = tested on: MRSA NRS 386; experiment: MIC, Gram-positive panel; format: cell-based; details: Staphylococcus aureus
Experimental: as §1

[7] = tested on: S. aureus ATCC 6538; experiment: MIC, Gram-positive panel; format: cell-based; details: Staphylococcus aureus, ATCC6538
Experimental: as §1

[8] = tested on: Methicillin-resistant S. epidermidis NRS101; experiment: MIC, Gram-positive panel; format: cell-based; details: Staphylococcus epidermidis
Experimental: as §1

[9] = tested on: MRSA NRS 385; experiment: MIC, Gram-positive panel; format: cell-based; details: Staphylococcus aureus
Experimental: as §1

[10] = tested on: Methicillin-resistant S. pneumoniae ATCC 700677; experiment: MIC, Gram-positive panel; format: cell-based; details: Streptococcus pneumoniae, ATCC700677
Experimental: as §1

[11] = tested on: VRSA 10; experiment: MIC, Gram-positive panel; format: cell-based; details: Staphylococcus aureus
Experimental: as §1

[12] = tested on: S. aureus NRS 107; experiment: MIC, Gram-positive panel; format: cell-based; details: Staphylococcus aureus, NRS107
Experimental: as §1

[13] = tested on: S. pneumoniae ATCC 51916; experiment: MIC, Gram-positive panel; format: cell-based; details: Streptococcus pneumoniae, ATCC51916
Experimental: as §1

[14] = tested on: MRSA NRS 119; experiment: MIC, Gram-positive panel; format: cell-based; details: Staphylococcus aureus
Experimental: as §1

[15] = tested on: Staphylococcus aureus NRS384 (MRSA USA300); experiment: Initial MIC screening, broth microdilution (CLSI); format: cell-based; details: for MIC: Staphylococcus aureus NRS384 (MRSA USA300), broth microdilution, visual reading
Outline: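 MRSA USA300 grown 24 h at 37 °C on tryptic soy agar, then adjusted to 5×10^5 CFU/ml in cation-adjusted Mueller-Hinton broth. Compounds serially diluted 64 to 0.5 μg/mL per CLSI broth microdilution; MIC recorded.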

[16] = tested on: total proteases production in MRSA USA300; experiment: Inhibition of staphylococcal total proteases production, skimmed milk method; format: cell-based, Staphylococcus aureus; details: MRSA USA300, 0.25×MIC, untreated = 100%
Experimental: The modified skimmed milk method was utilized to investigate the protease inhibitory activities of BHS compounds as described previously. In brief, overnight culture of MRSA300 in TSB, with and without subinhibitory concentrations of compounds (in triplicate), was centrifuged at 14000×g for 10 minutes. Then, a total volume of 500 μL of culture supernatant was incubated with 1 mL skimmed milk (1.25%) at 37° C. for 1 hour. Afterwards, the OD600 was measured to indicate the degree of clearance of skimmed milk. Higher OD values indicate lower proteolytic activity and greater protease inhibitory activity.
FIG. 4. Influence of BHS compounds on the staphylococcal total protease production. OD600 was measured following overnight culturing of MRSA USA300 in TSB in presence and absence of 0.25×MIC of 148, 149, 155, 158 and vancomycin followed by incubation of supernatants with skim milk for 1 hour at 37° C. The Data are presented as percent production (means±standard deviation). DMSO (the solvent for the compounds that served as a negative control). Vancomycin served as the control antibiotic. The values represent an average (means±standard deviation) of four samples analyzed for each compound/antibiotic. Error bars represent standard deviation values. An asterisk (*) denotes statistical significance (P<0.05) between results for compounds 148, 149, 155, 158 and vancomycin analyzed via unpaired t test ([…]).

[17] = tested on: MRSA USA 400; experiment: Time-kill assay; format: cell-based, Staphylococcus aureus; details: 5×MIC, MRSA USA 400, 24-hour incubation
Experimental: In order to the mode of killing of methylene lactone compounds, a time kill assay was performed against MRSA USA 400 as described previously. MRSA USA400 cells in logarithmic growth phase (OD600˜1.00) were diluted to 6.03×10^6 colony-forming units (CFU/mL) and exposed to concentrations equivalent to 5×MIC (in triplicate) of 148, 149, 151, 155, 158 and vancomycin in Tryptic soy broth. Aliquots (100 μL) were collected from each treatment after 0, 2, 4, 6, 8, 12, and 24 hours of incubation at 37° C. and subsequently serially diluted in PBS. Bacteria were then transferred to Tryptic soy agar plates and incubated at 37° C. for 18-20 hours before viable CFU/mL was determined (FIG. 1).
DMSO (solvent for the compounds) served as a negative control and vancomycin served as a control drug. The error bars represent standard deviation values obtained from triplicate samples used for each compound/antibiotic studied.

[18] = tested on: intracellular MRSA USA400 inside murine macrophage (J774) cells; experiment: Clearance of intracellular MRSA in infected J774 macrophages; format: cell-based, Staphylococcus aureus; details: 24 hours, J774 infected with MRSA USA400
Experimental: The ability of the compound 148 to reduce the burden of intracellular MRSA was evaluated utilizing previously described methods. Murine macrophage cells (J774) were cultured in Dulbecco's Modified Eagle Medium (DMEM) supplemented with 10% FBS at 37° C. with CO2 (5%). J774 cells were exposed to MRSA USA400 cells at a multiplicity of infection of approximately 10:1. After 1 hour of infection, J774 cells were washed with gentamicin (200 μg/mL) to kill extracellular MRSA. The compounds or vancomycin (at 4×MIC and 8×MIC) were subsequently added to each well (four replicates per test agent). Control cells received DMSO at a concentration equal to that in drug-treated cell samples. After 24 hours-incubation at 37° C. with 5% CO2, the test agents were removed. J774 cells were washed and subsequently lysed using 0.1% Triton-X. The solution was serially diluted in phosphate-buffered saline and transferred to TSA plates in order to determine viable MRSA CFU inside the J774 cells. Plates were incubated at 37° C. for 18-22 hour before counting viable CFU/mL. Statistical significance was assessed with two-way ANOVA, with post hoc Dunnet's multiple comparisons test (P<0.05), utilizing GraphPad Prism 6.0 (GraphPad Software, La Jolla, Calif.).
FIG. 6. Examination of the activity of compounds 148 on the clearance of intracellular MRSA present inside infected murine macrophage (J774) cells. […] Data were analyzed via two-way ANOVA, with post hoc Dunnet's multiple comparisons test (P<0.05), utilizing GraphPad Prism 6.0 (GraphPad Software, La Jolla, Calif.). Asterisks (*) represent significant difference between treatment of J774 cells with compound 148 in comparison to vancomycin.

[19] = Enterococcus faecium ATCC 700221 (VRE), read-out: MIC
[20] = Enterococcus faecalis ATCC 51299 (VRE), read-out: MIC
[21] = S. aureus ATCC 6538, read-out: MIC
[22] = Methicillin-resistant S. epidermidis NRS101, read-out: MIC
[23] = Methicillin-resistant S. pneumoniae ATCC 700677, read-out: MIC
[24] = S. aureus NRS 107, read-out: MIC
[25] = S. pneumoniae ATCC 51916, read-out: MIC
[26] = Staphylococcus aureus, read-out: MIC

| MIC [2, 19] | MIC ([3]; VRSA 12, read-out: MIC) | MIC ([4]; MRSA NRS 123, read-out: MIC) | MIC [5, 20] | MIC ([6]; MRSA NRS 386, read-out: MIC) | MIC [7, 21] | MIC [8, 22] | MIC ([9]; MRSA NRS 385, read-out: MIC) | MIC [10, 23] | MIC ([11]; VRSA 10, read-out: MIC) | MIC [12, 24] | MIC [13, 25] | MIC ([14]; MRSA NRS 119, read-out: MIC) | MIC [15] | MIC [15, 26] | Compound | tolerable concentration as multiple of MIC against MRSA [1] | other results |
| --- | --- | --- | --- | --- | --- | --- | --- | --- | --- | --- | --- | --- | --- | --- | --- | --- | --- |
| 64 µg/mL (≈ 193 µM) | 1 µg/mL (≈ 3.01 µM) | 1 µg/mL (≈ 3.01 µM) | > 64 µg/mL | 1 µg/mL (≈ 3.01 µM) | 1 µg/mL (≈ 3.01 µM) | 1 µg/mL (≈ 3.01 µM) | 1 µg/mL (≈ 3.01 µM) | 1 µg/mL (≈ 3.01 µM) | 1 µg/mL (≈ 3.01 µM) | 1 µg/mL (≈ 3.01 µM) | 1 µg/mL (≈ 3.01 µM) | 1 µg/mL (≈ 3.01 µM) | 1 µg/mL (≈ 3.01 µM) | 1 to 2 µg/mL (≈ 3.01 to 6.02 µM) | C=C(C(=O)OC)C(c1cccc2ccccc12)C(O)c1ccccc1 (centres unmarked) [Compound 144] | 16 to 32 times | potency compared with control antibiotic ([15]; MRSA USA300, Table 1 assay): potency similar to the oxazolidinone class of antimicrobial drug linezolid |
| > 64 µg/mL | 2 µg/mL (≈ 6.61 µM) | 2 µg/mL (≈ 6.61 µM) | > 64 µg/mL | 1 µg/mL (≈ 3.31 µM) | 1 µg/mL (≈ 3.31 µM) | 0.5 µg/mL (≈ 1.65 µM) | 1 µg/mL (≈ 3.31 µM) | 1 µg/mL (≈ 3.31 µM) | 1 µg/mL (≈ 3.31 µM) | 1 µg/mL (≈ 3.31 µM) | 1 µg/mL (≈ 3.31 µM) | 2 µg/mL (≈ 6.61 µM) | 1 µg/mL (≈ 3.31 µM) | 1 to 2 µg/mL (≈ 3.31 to 6.61 µM) | C=C1C(=O)O[C@H](C2=CC=CCC2)[C@H]1c1cccc2ccccc12 [Compound 187] | 16 to 32 times | – |
| – | – | – | – | – | – | – | – | – | – | – | – | – | – | – | CN[C@H](CC(C)C)C(=O)N[C@H]1C(=O)N[C@@H](CC(N)=O)C(=O)N[C@H]2C(=O)N[C@H]3C(=O)N[C@H](C(=O)N[C@H](C(=O)O)c4cc(O)cc(O)c4-c4cc3ccc4O)[C@H](O)c3ccc(c(Cl)c3)Oc3cc2cc(c3O[C@@H]2O[C@H](CO)[C@@H](O)[C@H](O)[C@H]2O[C@H]2C[C@](C)(N)[C@H](O)[C@H](C)O2)Oc2ccc(cc2Cl)[C@H]1O [vancomycin, reference compound] | – | total protease production [16]: ineffective; time required for complete eradication of the bacterial count [17]: 12 h; MIC ([2]; Enterococcus faecium): > 64 µg/mL; MIC ([3]; VRSA): > 64 µg/mL; MIC [4]: 1 µg/mL (≈ 0.69 µM); MIC ([5]; Enterococcus faecalis): 32 µg/mL (≈ 22.1 µM); MIC [6]: 1 µg/mL (≈ 0.69 µM); MIC [7]: 1 µg/mL (≈ 0.69 µM); MIC ([8]; NRS101): 2 µg/mL (≈ 1.38 µM); MIC [9]: 1 µg/mL (≈ 0.69 µM); MIC [10]: 2 µg/mL (≈ 1.38 µM); MIC ([11]; VRSA): > 64 µg/mL; MIC [12]: 2 µg/mL (≈ 1.38 µM); MIC [13]: 2 µg/mL (≈ 1.38 µM); MIC [14]: 1 µg/mL (≈ 0.69 µM); reduction of intracellular MRSA ([18]; 4 μg/mL): not able to reduce; reduction of intracellular MRSA ([18]; 8 μg/mL): not able to reduce |
